From patent US10874622B2, “Dual assembly nanoparticles” (BOARD OF REGENTS, THE UNIVERSITY OF TEXAS SYSTEM, priority 2015, dated 2020) come the findings set out here.

This data set concerns HeyA8 cells. The data set is described as follows: In vitro anoikis (poly-HEMA plates, Annexin V-FITC/PI). The format is cell-based, human. Conditions: HeyA8 cells in suspension, 72 h. The procedure: In vitro anoikis. Cells were transfected with control or ZNF304 siRNA and transferred to 6-well tissue culture plates that were coated with polyhydroxyethylmethacrylate, and cells were cultured in these plates for 72 h at 37° C. in a 5% CO2 atmosphere. Cells were washed with PBS and were stained with Annexin V-FITC and PI solution (50 μg/ml) containing RNase A (25 μg/ml). After incubating the pellets for 30 min at 37° C., cell viability was analyzed by flow cytometry.
β1 integrin confers a survival advantage to tumor cells (Vachon, 2011). […] Therefore, the anoikis rates were examined at 24, 48, and 72 h in detached HeyA8 cells in vitro using polyhydroxyethylmethacrylate (poly-HEMA)-coated tissue culture plates that promote anchorage-independent cell growth (Sood et al., 2010).

Regarding “Control siRNA: non-silencing siRNA without homology to any known human mRNA, UUCUCCGAACGUGUCACGUUU (SEQ ID NO: 15) (listed as RNA, chemistry not given here)”, the rate of anoikis was 60%.
